Results from paper PMC4873738, “A Small Molecule Inhibitor of PDK1/PLCγ1 Interaction Blocks Breast and Melanoma Cancer Cell Invasion” (Scientific Reports, 2016).

Molecular target: T1, 3-phosphoinositide-dependent protein kinase 1 (PDK1) (Homo sapiens, UniProt O15530)
T1 construct: gene PDPK1; PH domain, amino-acids 411-552
T1 sequence (O15530 411-552): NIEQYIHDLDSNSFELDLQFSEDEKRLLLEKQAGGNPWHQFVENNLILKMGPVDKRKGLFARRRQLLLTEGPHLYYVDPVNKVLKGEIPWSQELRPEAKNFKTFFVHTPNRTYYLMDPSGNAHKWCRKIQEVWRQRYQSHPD
Test: isothermal titration calorimetry with purified recombinant PH domain, […] °C, four experiments, n = […]
Type: binding

Q: How did the Kd turn out when `O=P(O)(O)O[C@@H]1[C@@H](OP(=O)(O)O)[C@H](OP(=O)(O)O)[C@H](OCc2ccccc2)[C@H](OP(=O)(O)O)[C@H]1OP(=O)(O)O` [2-O-Bn-InsP5, 2-O-benzyl-myo-inositol 1,3,4,5,6-pentakisphosphate] was run?
A: 109 ± 44 nM
